Each structure is given as a SMILES string.

Data on 37 compounds can be found in patent US11725000B2, “Apoptosis inhibitors” (National Institute of Biological Sciences, Beijing, priority 2017, dated 2023).

For the first test, the system named is U2OS_Bim cells. As to the kind of experiment: Apoptosis inhibition assay (Bim-induced apoptosis, cell viability by ATP level). It is filed as cell-based. Conditions: U2OS_Bim cells; estimated (*Est.) / preliminary results; numbering of Tables 4a/4b; read-out: EC50. The method, then: A chemical library containing 200000 compounds was screened according to the following procedure: U2OS_Bim cells (a cell line in which the BH3-only protein Bim can be inducibly expressed by the addition of Doxycycline to the growth medium)^[2] were plated in 384-well plates with 30 μl medium at a density of 500 cells per well. 16 hrs after plating, test compounds were transferred from stock plates to the assay plates with the cultured cells. Positive control (20 μM zVAD) and negative control (DMSO) were added to every plate. 1 hr after compound treatment, 0.1 ug/mL Doxycyclin (DOX) was added to induce the expression of the Bim protein. After 24 hrs, cell viability was determined by measuring the ATP levels using a Cell Titer-Glo kit (Promega, G7570) according to the manufacturer's instructions. Luminescence was recorded with a PerkinElmer EnSpire Multimode Plate Reader. Compounds that could rescue cell viability to a level above 50% were selected; these compounds were then screened a second time for assurance.
U2OS_Bim or U2OS_tBid cells were plated at a density of 3000 cells per well in 96-well plates. 24 hrs later, cells were treated with experimental compounds, zVAD (positive control) and DMSO (Negative control) for one hour. The cells were then treated with 0.1 μg/mL DOX to trigger apoptosis. 24 hours after the addition of DOX, cell viability was determined by measuring the ATP levels using a Cell Titer-Glo kit. Cell survival rate was calculated.
U2OS_Bim cells (a U2OS stable cell line transfected with a Bim transgene) were cultured in DMEM culture medium (Gibico). On day one, U2OS_Bim cells were plated in 96-well plates at a density of 3000 cells per well. On day two, cells were pretreated with compounds for one hour. Then cells were treated with 0.1 μg/mL doxycycline (DOX) to trigger apoptosis. 24 hours after DOX treatment, cell viability was determined by measuring the ATP levels using the Cell Titer-Glo kit (G7570, Promega), according to the manufacturer's instructions. Luminescence was recorded with a PerkinElmer EnSpire Multimode Plate Reader. Survived cells were normalized to those cells treated with DMSO. zVAD (20 μM) was used as a positive control. Activity data for compounds […] are represented as means f standard deviation of duplicates; activity data for compounds 187-274 are estimated based on preliminary results.
For the compound `Cc1cc(-c2cc(F)c(=O)n(Cc3ccc4nnn(C)c4c3)c2)nc(S(=O)(=O)CCCC(=O)N(c2ccccc2)C2CCC2)n1` [Compound 373], the EC50 is 1 to 1000 nM.

Take `Cc1cc(-c2cc(F)c(=O)n(Cc3ccc4c(c3)OCO4)c2)nc(S(=O)(=O)CCC(OCC2CC2)c2ccccc2)n1` (stereo not shown) [Compound 418]: the EC50 was 1 to 1000 nM.

`Cc1cc(-c2cc(F)c(=O)n(Cc3ccc4c(c3)OCO4)c2)nc(S(=O)(=O)CCC(OCC2CCCCC2)c2ccccc2)n1` (stereo not shown) [Compound 409]: the EC50 was 1 to 1000 nM.

As to `Cc1cc(-c2cc(F)c(=O)n(Cc3ccc4c(c3)OCO4)c2)nc(S(=O)(=O)CCCN2C(=O)Cc3ccccc32)n1` [Compound 362], the EC50 is 1 to 1000 nM.

In the case of `Cc1cc(-c2cc(F)c(=O)n(Cc3ccc4[nH]c(=O)c(=O)[nH]c4c3)c2)nc(S(=O)(=O)CCC(OCc2ccccc2F)c2ccccc2)n1` (stereo not shown) [Compound 345], the EC50 was 1 to 1000 nM.

Regarding `Cc1cc(-c2cc(F)c(=O)n(Cc3ccnc(N(C)CO)c3)c2)nc(S(=O)(=O)CCC(OCc2ccccc2F)c2ccccc2)n1` (stereo not shown) [Compound 361], the EC50 is 1 to 1000 nM.

Turning to `Cc1cc(-c2cc(F)c(=O)n(Cc3ccc4nnn(C)c4c3)c2)nc(S(=O)(=O)CCCN2C(=O)Cc3ccccc32)n1` [Compound 363], the EC50 is 1 to 1000 nM.

Consider `Cc1cc(-c2cc(F)c(=O)n(Cc3ccc4c(c3)OCO4)c2)nc(S(=O)(=O)CCC(OCc2ccccc2F)C2CCCCN2C)n1` (stereo not shown) [Compound 398], for which the EC50 is 1 to 1000 nM.

Regarding `Cc1cc(-c2cc(F)c(=O)n(Cc3ccc4c(c3)OCO4)c2)nc(S(=O)(=O)CCC(OCc2ccccc2F)c2cccs2)n1` (stereo not shown) [Compound 389], the EC50 is 1 to 1000 nM.

With `Cc1cc(-c2cc(F)c(=O)n(Cc3ccc4c(c3)OCO4)c2)nc(S(=O)(=O)CCCC(=O)N(c2ccccc2)C2CCC2)n1` [Compound 370], the EC50 was 1 to 1000 nM.

For the compound `Cc1cc(-c2cc(F)c(=O)n(Cc3ccc4c(c3)OCO4)c2)nc(S(=O)(=O)CCCn2cnc3ccccc32)n1` [Compound 338, 5-(2-((3-(1H-benzo[d]imidazol-1-yl)propyl)sulfonyl)-6-methylpyrimidin-4-yl)-1-(benzo[d][1,3]dioxol-5-ylmethyl)-3-fluoropyridin-2 (1H)-one], the EC50 is 1 to 1000 nM.

As for `Cc1cc(-c2cc(F)c(=O)n(Cc3ccc4c(c3)OCO4)c2)nc(S(=O)(=O)CCC(OCC2CCOCC2)c2ccccc2)n1` (stereo not shown) [Compound 410], the EC50 is 1 to 1000 nM.

Still in this test, the particulars now being: U2OS_Bim cells; estimated based on preliminary results; numbering of Tables 4a/4b; read-out: EC50.
As for `CS(=O)(=O)c1nc(-c2ccc(=O)n(Cn3ccc4ccccc43)c2)cc(C(F)(F)F)n1` [Compound 256], the EC50 is less than 10000 nM.

With `COc1ccc(Cn2cc(-c3cc(C(F)(F)F)nc(S(=O)(=O)CN(C)C)n3)ccc2=O)cc1OC` [Compound 199], the EC50 is less than 10000 nM.

For `CCc1ccc(Cn2cc(-c3cc(C(F)(F)F)nc([S+](C)[O-])n3)ccc2=O)cc1CC` (stereo not shown) [Compound 267], the EC50 is less than 10000 nM.

For the compound `C[S+]([O-])c1nc(-c2ccc(=O)n(Cc3ccc4cccnc4c3)c2)cc(C(F)(F)F)n1` (stereo not shown) [Compound 253], the EC50 is less than 10000 nM.

For `C[S+]([O-])c1nc(-c2ccc(=O)n(CC3=Cc4ccccc4C3)c2)cc(C(F)(F)F)n1` (stereo not shown) [Compound 255], the EC50 is less than 10000 nM.

With `CCc1ccc(Cn2cc(-c3cc(C(F)(F)F)nc(S(C)(=O)=O)n3)ccc2=O)cc1CC` [Compound 266], the EC50 was less than 10000 nM.

Regarding `C[S+]([O-])c1nc(-c2ccc(=O)n(Cc3ccc4cnccc4c3)c2)cc(C(F)(F)F)n1` (stereo not shown) [Compound 249], the EC50 is less than 10000 nM.

`COc1ccc(Cn2cc(-c3cc(-c4cncs4)nc([S+](C)[O-])n3)ccc2=O)cc1OC` (stereo not shown) [Compound 216]: the EC50 was less than 10000 nM.

Consider `COc1ccc(Cn2cc(-c3cc(C(F)(F)F)nc([S+]([O-])Cc4cccnc4)n3)ccc2=O)cc1OC` (stereo not shown) [Compound 192], for which the EC50 is less than 10000 nM.

As for `CNc1ccc(Cn2cc(-c3cc(C(F)(F)F)nc(S(C)(=O)=O)n3)ccc2=O)cc1NC` [Compound 232], the EC50 is less than 10000 nM.

For the compound `COc1ccc(Cn2cc(-c3cc(C(F)(F)F)nc(S(=O)(=O)CN4CCCC4)n3)ccc2=O)cc1OC` [Compound 194], the EC50 is less than 10000 nM.

The same test, now with this note: U2OS_Bim cells; means of duplicates; numbering of Tables 4a/4b; read-out: EC50.
Take `COc1ccc(Cn2cc(-c3cc(C(F)F)nc([S+]([O-])CCC(OCc4ccccc4F)c4ccccc4)n3)ccc2=O)cc1F` (stereo not shown) [Compound 283, 5-(6-(difluoromethyl)-2-(3-(2-fluorobenzyloxy)-3-phenylpropylsulfinyl)pyrimidin-4-yl)-1-(3-fluoro-4-methoxybenzyl)pyridin-2 (1H)-one]: the EC50 is 1 to 1000 nM.

Regarding `Cc1cc(-c2cnc(=O)n(Cc3ccc4c(c3)OCO4)c2)nc(S(=O)(=O)CCC(OCc2ccccc2F)c2ccccc2)n1` (stereo not shown) [Compound 307, 1′-(benzo[d][1,3]dioxol-5-ylmethyl)-2-((3-((2-fluorobenzyl)oxy)-3-phenylpropyl)sulfonyl)-6-methyl-[4,5′-bipyrimidin]-2′(1′H)-one], the EC50 lay in the range of 1 to 1000 nM.

Regarding `COc1ccc(Cn2cc(-c3cc(C(F)F)nc(S(=O)(=O)CCCC(=O)NC45CC6CC(CC(C6)C4)C5)n3)ccc2=O)cc1OC` [Compound 288, N-((3s,5s,7s)-adamantan-1-yl)-4-((4-(difluoromethyl)-6-(1-(3,4-dimethoxybenzyl)-6-oxo-1,6-dihydropyridin-3-yl)pyrimidin-2-yl)sulfonyl)butanamide], the EC50 was 1 to 1000 nM.

With `O=S(=O)(CCC(OCc1ccccc1)c1ccccc1)c1nc(-c2cccs2)cc(C(F)(F)F)n1` (stereo not shown) [Compound 291, 2-(3-(benzyloxy)-3-phenylpropylsulfonyl)-4-(thiophen-2-yl)-6-(trifluoromethyl)pyrimidine], the concentration for a half-maximal effect (EC50) was in the range of 1000 to 10000 nM.

For `COc1ccc(Cn2cc(-c3cc(C(F)(F)F)nc(S(=O)(=O)CCCCO)n3)ccc2=O)cc1OC` [Compound 276, 1-(3,4-dimethoxybenzyl)-5-(2-((4-hydroxybutyl)sulfonyl)-6-(trifluoromethyl)pyrimidin-4-yl)pyridin-2 (1H)-one], the EC50 fell in the range of 1 to 1000 nM.

In the case of `C#CCCS(=O)(=O)c1nc(-c2ccc(=O)n(Cc3ccc(OC)c(OC)c3)c2)cc(C(F)(F)F)n1` [Compound 141, 5-(2-(but-3-yn-1-ylsulfonyl)-6-(trifluoromethyl)pyrimidin-4-yl)-1-(3,4-dimethoxybenzyl)pyridin-2 (1H)-one], the EC50 is 1 to 1000 nM.

With `CS(=O)(=O)c1nc(-c2ccccc2C(=O)O)cc(C(F)(F)F)n1` [Compound 63, 2-(2-(methylsulfonyl)-6-(trifluoromethyl)pyrimidin-4-yl)benzoic acid], the EC50 was less than 100000 nM.

Turning to `CS(=O)(=O)c1nc(-c2ccn(Cc3cccc(C#N)c3)c2)cc(C(F)(F)F)n1` [Compound 97, 3-((3-(2-(methylsulfonyl)-6-(trifluoromethyl)pyrimidin-4-yl)-1H-pyrrol-1-yl)methyl)benzonitrile], the EC50 is less than 100000 nM.

Take `C[S+]([O-])c1nc(-c2ccn(Cc3cccc(Cl)c3)c2)cc(C(F)(F)F)n1` (stereo not shown) [Compound 94, 4-(1-(3-chlorobenzyl)-1H-pyrrol-3-yl)-2-(methylsulfinyl)-6-(trifluoromethyl)pyrimidine]: the EC50 is less than 100000 nM.

For `Cc1cc(-c2cc(F)c(=O)n(CC3CCCCC3)c2)nc(S(=O)(=O)CCC(OCc2ccc(F)cc2F)c2ccccc2)n1` (stereo not shown) [Compound 309, 1-(cyclohexylmethyl)-5-(2-(3-(2,4-difluorobenzyloxy)-3-phenylpropylsulfonyl)-6-methylpyrimidin-4-yl)-3-fluoropyridin-2 (1H)-one], the EC50 was in the range of 1000 to 10000 nM.

Consider `COc1ccc(Cn2cc(-c3cc(C(F)F)nc([S+](C)[O-])n3)ccc2=O)cc1F` (stereo not shown) [Compound 168, 5-(6-(difluoromethyl)-2-(methylsulfinyl)pyrimidin-4-yl)-1-(3-fluoro-4-methoxybenzyl)pyridin-2 (1H)-one], for which the EC50 was in the range of 1 to 1000 nM.

For the compound `CS(=O)(=O)c1nc(-c2cccs2)cc(-n2ccccc2=O)n1` [Compound 39, 1-(2-(methylsulfonyl)-6-(thiophen-2-yl)pyrimidin-4-yl)pyridine-2 (1H)-one], the EC50 was less than 100000 nM.

For the compound `COc1ccc(Cn2cc(-c3cc(C)nc(S(=O)(=O)CCC(OCc4ccccc4)c4ccccc4)n3)ccc2=O)cc1OC` (stereo not shown) [Compound 295, 5-(2-(3-(benzyloxy)-3-phenylpropylsulfonyl)-6-methylpyrimidin-4-yl)-1-(3,4-dimethoxybenzyl)pyridin-2 (1H)-one], the EC50 lay in the range of 1 to 1000 nM.

For the compound `CS(=O)(=O)c1nc(-c2ccc(=O)n(Cc3ccc(C#N)cc3)c2)cc(C(F)(F)F)n1` [Compound 119, 4-((5-(2-(methylsulfonyl)-6-(trifluoromethyl)pyrimidin-4-yl)-2-oxopyridin-1 (2H)-yl)methyl)benzonitrile], the EC50 was in the range of 1000 to 10000 nM.

In general, EC50 refers to the concentration needed to bring the measured effect to its halfway point.
